Assay results: patent US7118895B2, “Process for producing aglycon by using diglycosidase and flavor-improved food containing the aglycon and converting agent to be used in the process” (Amano Enzyme Inc., priority 2000, dated 2006)

System: Crude diglycosidase
Test: Examination of temperature in the conversion into isoflavone aglycons by diglycosidase using soybean materials
Format: biochemical, Penicillium multicolor IAM7153
Parameters: Decomposition efficiency of glycitin family in roasted soy flour / Decomposition efficiency of daidzin family in roasted soy flour / Decomposition efficiency of genistin family in soymilk / Decomposition efficiency of daidzin family in soymilk / Decomposition efficiency of glycitin family in defatted soybean / Decomposition efficiency of daidzin family in defatted soybean: concentration or dose not given beside the values
Procedure, shortened: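 Temperature series (30-80° C.) of crude diglycosidase, diluted to 1.88 AU/mL in 20 mM acetate pH 4.0, acting on roasted soy flour, soymilk, defatted soybean or soy protein concentrate. Samples quenched with ethanol after 0-6 h, centrifuged, filtered and analyzed by HPLC for glycosides versus aglycons.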

[1] = 30 °C, heat treatment of enzyme: no, 0 h
[2] = 30 °C, heat treatment of enzyme: no, 1 h
[3] = 30 °C, heat treatment of enzyme: no, 3 h
[4] = 30 °C, heat treatment of enzyme: no, 6 h
[5] = 30 °C, heat treatment of enzyme: yes, 6 h
[6] = 45 °C, heat treatment of enzyme: no, 0 h
[7] = 45 °C, heat treatment of enzyme: no, 1 h
[8] = 45 °C, heat treatment of enzyme: no, 3 h
[9] = 45 °C, heat treatment of enzyme: no, 6 h
[10] = 45 °C, heat treatment of enzyme: yes, 6 h
[11] = 55 °C, heat treatment of enzyme: no, 0 h
[12] = 55 °C, heat treatment of enzyme: no, 1 h
[13] = 55 °C, heat treatment of enzyme: no, 3 h
[14] = 55 °C, heat treatment of enzyme: no, 6 h
[15] = 55 °C, heat treatment of enzyme: yes, 6 h
[16] = 65 °C, heat treatment of enzyme: no, 0 h
[17] = 65 °C, heat treatment of enzyme: no, 1 h
[18] = 65 °C, heat treatment of enzyme: no, 3 h
[19] = 65 °C, heat treatment of enzyme: no, 6 h
[20] = 65 °C, heat treatment of enzyme: yes, 6 h
[21] = 80 °C, heat treatment of enzyme: no, 0 h
[22] = 80 °C, heat treatment of enzyme: no, 1 h
[23] = 80 °C, heat treatment of enzyme: no, 3 h
[24] = 80 °C, heat treatment of enzyme: no, 6 h
[25] = 80 °C, heat treatment of enzyme: yes, 6 h

## COc1cc2c(=O)c(-c3ccc(O)cc3)coc2cc1O[C@@H]1O[C@H](CO)[C@@H](O)[C@H](O)[C@H]1O [glycitin]
30° C., heat treatment of enzyme no, reaction time 0 h
  Decomposition efficiency of glycitin family in defatted soybean: not detected
30° C., heat treatment of enzyme no, reaction time 1 h
  Decomposition efficiency of glycitin family in defatted soybean: not detected
30° C., heat treatment of enzyme no, reaction time 3 h
  Decomposition efficiency of glycitin family in defatted soybean: not detected
30° C., heat treatment of enzyme no, reaction time 6 h
  Decomposition efficiency of glycitin family in defatted soybean: not detected
30° C., heat treatment of enzyme yes, reaction time 6 h
  Decomposition efficiency of glycitin family in defatted soybean: not detected
[1]
  Decomposition efficiency of glycitin family in concentrated soybean protein: 52.2%
  Decomposition efficiency of glycitin family in roasted soy flour: 50.9%
  Decomposition efficiency of glycitin family in soymilk: 43.9%
[2]
  Decomposition efficiency of glycitin family in concentrated soybean protein: 47.1%
  Decomposition efficiency of glycitin family in roasted soy flour: 34.8%
  Decomposition efficiency of glycitin family in soymilk: not detected
[3]
  Decomposition efficiency of glycitin family in concentrated soybean protein: 39.1%
  Decomposition efficiency of glycitin family in roasted soy flour: not detected
  Decomposition efficiency of glycitin family in soymilk: not detected
[4]
  Decomposition efficiency of glycitin family in concentrated soybean protein: 28.4%
  Decomposition efficiency of glycitin family in roasted soy flour: not detected
  Decomposition efficiency of glycitin family in soymilk: not detected
[5]
  Decomposition efficiency of glycitin family in concentrated soybean protein: 52.8%
  Decomposition efficiency of glycitin family in roasted soy flour: 51.4%
  Decomposition efficiency of glycitin family in soymilk: 44.5%
45° C., heat treatment of enzyme no, reaction time 0 h
  Decomposition efficiency of glycitin family in defatted soybean: not detected
45° C., heat treatment of enzyme no, reaction time 1 h
  Decomposition efficiency of glycitin family in defatted soybean: not detected
45° C., heat treatment of enzyme no, reaction time 3 h
  Decomposition efficiency of glycitin family in defatted soybean: not detected
45° C., heat treatment of enzyme no, reaction time 6 h
  Decomposition efficiency of glycitin family in defatted soybean: not detected
45° C., heat treatment of enzyme yes, reaction time 6 h
  Decomposition efficiency of glycitin family in defatted soybean: not detected
[6]
  Decomposition efficiency of glycitin family in concentrated soybean protein: 52.3%
  Decomposition efficiency of glycitin family in roasted soy flour: 51.3%
  Decomposition efficiency of glycitin family in soymilk: 42.6%
[7]
  Decomposition efficiency of glycitin family in concentrated soybean protein: 30.2%
  Decomposition efficiency of glycitin family in roasted soy flour: 12.4%
  Decomposition efficiency of glycitin family in soymilk: not detected
[8]
  Decomposition efficiency of glycitin family in concentrated soybean protein: 18.8%
  Decomposition efficiency of glycitin family in roasted soy flour: 12.4%
  Decomposition efficiency of glycitin family in soymilk: not detected
[9]
  Decomposition efficiency of glycitin family in concentrated soybean protein: 7.5%
  Decomposition efficiency of glycitin family in roasted soy flour: 5.9%
  Decomposition efficiency of glycitin family in soymilk: not detected
[10]
  Decomposition efficiency of glycitin family in concentrated soybean protein: 53.2%
  Decomposition efficiency of glycitin family in roasted soy flour: 49.8%
  Decomposition efficiency of glycitin family in soymilk: 45.4%
55° C., heat treatment of enzyme no, reaction time 0 h
  Decomposition efficiency of glycitin family in defatted soybean: not detected
55° C., heat treatment of enzyme no, reaction time 1 h
  Decomposition efficiency of glycitin family in defatted soybean: not detected
55° C., heat treatment of enzyme no, reaction time 3 h
  Decomposition efficiency of glycitin family in defatted soybean: not detected
55° C., heat treatment of enzyme no, reaction time 6 h
  Decomposition efficiency of glycitin family in defatted soybean: not detected
55° C., heat treatment of enzyme yes, reaction time 6 h
  Decomposition efficiency of glycitin family in defatted soybean: not detected
[11]
  Decomposition efficiency of glycitin family in concentrated soybean protein: 52.3%
  Decomposition efficiency of glycitin family in roasted soy flour: 50.5%
  Decomposition efficiency of glycitin family in soymilk: 47.8%
[12]
  Decomposition efficiency of glycitin family in concentrated soybean protein: 14.2%
  Decomposition efficiency of glycitin family in roasted soy flour: not detected
  Decomposition efficiency of glycitin family in soymilk: not detected
[13]
  Decomposition efficiency of glycitin family in concentrated soybean protein: not detected
  Decomposition efficiency of glycitin family in roasted soy flour: not detected
  Decomposition efficiency of glycitin family in soymilk: not detected
[14]
  Decomposition efficiency of glycitin family in concentrated soybean protein: not detected
  Decomposition efficiency of glycitin family in roasted soy flour: not detected
  Decomposition efficiency of glycitin family in soymilk: not detected
[15]
  Decomposition efficiency of glycitin family in concentrated soybean protein: 52.9%
  Decomposition efficiency of glycitin family in roasted soy flour: 51.7%
  Decomposition efficiency of glycitin family in soymilk: 53.5%
65° C., heat treatment of enzyme no, reaction time 0 h
  Decomposition efficiency of glycitin family in defatted soybean: not detected
65° C., heat treatment of enzyme no, reaction time 1 h
  Decomposition efficiency of glycitin family in defatted soybean: not detected
65° C., heat treatment of enzyme no, reaction time 3 h
  Decomposition efficiency of glycitin family in defatted soybean: not detected
65° C., heat treatment of enzyme no, reaction time 6 h
  Decomposition efficiency of glycitin family in defatted soybean: not detected
65° C., heat treatment of enzyme yes, reaction time 6 h
  Decomposition efficiency of glycitin family in defatted soybean: not detected
[16]
  Decomposition efficiency of glycitin family in concentrated soybean protein: 52.2%
  Decomposition efficiency of glycitin family in roasted soy flour: 50.9%
  Decomposition efficiency of glycitin family in soymilk: 43.9%
[17]
  Decomposition efficiency of glycitin family in concentrated soybean protein: 5.2%
  Decomposition efficiency of glycitin family in roasted soy flour: not detected
  Decomposition efficiency of glycitin family in soymilk: not detected
[18]
  Decomposition efficiency of glycitin family in concentrated soybean protein: not detected
  Decomposition efficiency of glycitin family in roasted soy flour: not detected
  Decomposition efficiency of glycitin family in soymilk: not detected
[19]
  Decomposition efficiency of glycitin family in concentrated soybean protein: not detected
  Decomposition efficiency of glycitin family in roasted soy flour: not detected
  Decomposition efficiency of glycitin family in soymilk: not detected
[20]
  Decomposition efficiency of glycitin family in concentrated soybean protein: 52.5%
  Decomposition efficiency of glycitin family in roasted soy flour: 50.3%
  Decomposition efficiency of glycitin family in soymilk: 56.8%
80° C., heat treatment of enzyme no, reaction time 0 h
  Decomposition efficiency of glycitin family in defatted soybean: not detected
80° C., heat treatment of enzyme no, reaction time 1 h
  Decomposition efficiency of glycitin family in defatted soybean: not detected
80° C., heat treatment of enzyme no, reaction time 3 h
  Decomposition efficiency of glycitin family in defatted soybean: not detected
80° C., heat treatment of enzyme no, reaction time 6 h
  Decomposition efficiency of glycitin family in defatted soybean: not detected
80° C., heat treatment of enzyme yes, reaction time 6 h
  Decomposition efficiency of glycitin family in defatted soybean: not detected
[21]
  Decomposition efficiency of glycitin family in concentrated soybean protein: 52.3%
  Decomposition efficiency of glycitin family in roasted soy flour: 51.3%
  Decomposition efficiency of glycitin family in soymilk: 42.6%
[22]
  Decomposition efficiency of glycitin family in concentrated soybean protein: 39.7%
  Decomposition efficiency of glycitin family in roasted soy flour: 19.2%
  Decomposition efficiency of glycitin family in soymilk: 10.7%
[23]
  Decomposition efficiency of glycitin family in concentrated soybean protein: 40.5%
  Decomposition efficiency of glycitin family in roasted soy flour: 20.5%
  Decomposition efficiency of glycitin family in soymilk: 22.5%
[24]
  Decomposition efficiency of glycitin family in concentrated soybean protein: 41.7%
  Decomposition efficiency of glycitin family in roasted soy flour: 33.6%
  Decomposition efficiency of glycitin family in soymilk: 44.2%
[25]
  Decomposition efficiency of glycitin family in concentrated soybean protein: 53.6%
  Decomposition efficiency of glycitin family in roasted soy flour: 50.6%
  Decomposition efficiency of glycitin family in soymilk: 71.4%
